According to the NIST ThermoML archive (doi:10.1021/je0302001):

Assay: mn = molality of the nth substance listed, in mol/kg
Conditions: 101.3 kPa, Liquid; for viscosity: Capillary tube (Ostwald / Ubbelohde) method

O=[N+]([O-])[O-].O=[N+]([O-])[O-].[Zn+2] [nitric acid, zinc salt] + O
Conditions | mass density [kg/m3] | speed of sound [m/s] | viscosity [mPa·s]
313.15 K, m1 = 0.3388 | – | 1540.3 | –
313.15 K, m1 = 0.6111 | – | 1548.3 | –
313.15 K, m1 = 0.6405 | – | 1550.9 | –
313.15 K, m1 = 1.113 | – | 1571.8 | –
313.15 K, m1 = 1.258 | – | 1580.9 | –
313.15 K, m1 = 1.551 | – | 1595.3 | –
313.15 K, m1 = 1.906 | – | 1613.8 | –
313.15 K, m1 = 2.145 | – | 1624.5 | –
313.15 K, m1 = 2.29 | – | 1630.2 | –
313.15 K, m1 = 2.292 | – | 1631.4 | –
313.15 K, m1 = 2.344 | – | 1634.6 | –
313.15 K, m1 = 2.91 | – | 1659.9 | –
313.15 K, m1 = 3.472 | – | 1683.4 | –
313.15 K, m1 = 4.075 | – | 1702.8 | –
313.15 K, m1 = 4.817 | – | 1727.1 | –
313.15 K, m1 = 5.224 | – | 1733.1 | –
313.15 K, m1 = 5.797 | – | 1742.3 | –
313.15 K, m1 = 6.34 | – | 1747.6 | –
313.15 K, m1 = 6.89 | – | 1751.5 | –
313.15 K, m1 = 7.349 | – | 1751.7 | –
313.3 K, m1 = 2.145 | 1277.4 | – | –
313.55 K, m1 = 0.1329 | 1011.2 | – | –
313.85 K, m1 = 0.6111 | 1080.1 | – | –
313.95 K, m1 = 1.906 | 1248.8 | – | –
313.95 K, m1 = 2.29 | 1293.8 | – | –
314 K, m1 = 5.8 | 1619.4 | – | –
314.1 K, m1 = 0.0875 | 1004.4 | – | –
314.15 K, m1 = 7.764 | 1746 | – | –
314.2 K, m1 = 2.344 | 1300 | – | –
314.25 K, m1 = 0.6405 | 1084 | – | –
314.35 K, m1 = 0.2466 | 1027.8 | – | –
314.35 K, m1 = 7.349 | 1722 | – | –
314.45 K, m1 = 0.3388 | 1041 | – | –
314.6 K, m1 = 2.91 | 1362 | – | –
314.7 K, m1 = 4.817 | 1542.3 | – | –
314.95 K, m1 = 1.551 | 1204.4 | – | –
314.95 K, m1 = 4.075 | 1477.2 | – | –
315.05 K, m1 = 1.113 | 1147.9 | – | –
315.05 K, m1 = 6.89 | 1692.9 | – | –
315.1 K, m1 = 3.472 | 1419.3 | – | –
315.9 K, m1 = 6.34 | 1655.7 | – | –
315.95 K, m1 = 0.1329 | 1010.2 | – | –
315.95 K, m1 = 7.349 | 1720.2 | – | –
316.15 K, m1 = 0.6111 | 1079 | – | –
316.2 K, m1 = 2.292 | 1292.7 | – | –
316.4 K, m1 = 0.6405 | 1082.8 | – | –
316.6 K, m1 = 5.224 | 1573.5 | – | –
316.75 K, m1 = 0.0875 | 1003.3 | – | –
316.8 K, m1 = 0.2466 | 1026.7 | – | –
316.8 K, m1 = 0.3388 | 1039.9 | – | –
316.85 K, m1 = 1.258 | 1166.1 | – | –
316.9 K, m1 = 1.551 | 1203.1 | – | –
317.15 K, m1 = 2.145 | 1274.9 | – | –
317.25 K, m1 = 1.113 | 1146.8 | – | –
317.5 K, m1 = 5.8 | 1616 | – | –
317.6 K, m1 = 7.764 | 1742.3 | – | –
317.65 K, m1 = 7.349 | 1718.4 | – | –
317.8 K, m1 = 2.29 | 1291.2 | – | –
317.9 K, m1 = 1.906 | 1246.3 | – | –
317.9 K, m1 = 2.344 | 1297.2 | – | –
318.15 K, m1 = 0.0875 | – | 1540.1 | –
318.15 K, m1 = 0.1329 | – | 1539.2 | 0.632
318.15 K, m1 = 0.2466 | – | 1542.8 | 0.655
318.15 K, m1 = 0.3388 | – | 1544.7 | 0.676
318.15 K, m1 = 0.6111 | – | 1555.1 | 0.738
318.15 K, m1 = 0.6405 | – | 1557.5 | 0.745
318.15 K, m1 = 1.113 | – | 1574.6 | 0.873
318.15 K, m1 = 1.258 | – | 1583.5 | 0.926
318.15 K, m1 = 1.551 | – | 1597.5 | 1.014
318.15 K, m1 = 1.906 | – | 1606.7 | 1.169
318.15 K, m1 = 2.145 | – | 1623.3 | 1.287
318.15 K, m1 = 2.29 | – | 1629.6 | 1.35
318.15 K, m1 = 2.292 | 1291.3 | 1631.3 | –
318.15 K, m1 = 2.344 | – | 1633.9 | 1.366
318.15 K, m1 = 2.91 | – | 1657.1 | 1.68
318.15 K, m1 = 3.472 | – | 1678.7 | 2.088
318.15 K, m1 = 4.075 | – | 1696.7 | 2.588
318.15 K, m1 = 4.817 | – | 1717.9 | 3.383
318.15 K, m1 = 5.224 | – | 1724.7 | 3.857
318.15 K, m1 = 5.797 | – | 1732 | 4.807
318.15 K, m1 = 6.34 | – | 1735.3 | 5.725
318.15 K, m1 = 6.89 | – | 1740.7 | 6.968
318.15 K, m1 = 7.349 | – | 1740.9 | 8.113
318.25 K, m1 = 0.6111 | 1077.9 | – | –
318.25 K, m1 = 4.817 | 1539 | – | –
318.3 K, m1 = 2.91 | 1359.3 | – | –
318.45 K, m1 = 6.89 | 1689.4 | – | –
318.6 K, m1 = 0.1329 | 1009.1 | – | –
318.65 K, m1 = 4.075 | 1474.2 | – | –
318.8 K, m1 = 0.6405 | 1081.7 | – | –
318.8 K, m1 = 3.472 | 1416.3 | – | –
318.85 K, m1 = 1.551 | 1202 | – | –
319.05 K, m1 = 0.0875 | 1002.2 | – | –
319.05 K, m1 = 0.3388 | 1038.8 | – | –
319.15 K, m1 = 1.113 | 1145.7 | – | –
319.2 K, m1 = 0.2466 | 1025.6 | – | –
319.3 K, m1 = 6.34 | 1652.5 | – | –
319.3 K, m1 = 7.764 | 1740.4 | – | –
320.05 K, m1 = 5.224 | 1570.1 | – | –
320.5 K, m1 = 0.6111 | 1076.8 | – | –
320.6 K, m1 = 4.075 | 1472.7 | – | –
320.75 K, m1 = 0.1329 | 1008.1 | – | –
320.85 K, m1 = 5.8 | 1612.8 | – | –
321 K, m1 = 1.258 | 1163.6 | – | –
321 K, m1 = 7.349 | 1714.9 | – | –
321.05 K, m1 = 2.145 | 1272.2 | – | –
321.25 K, m1 = 1.113 | 1144.5 | – | –
321.3 K, m1 = 0.0875 | 1001.2 | – | –
321.3 K, m1 = 0.3388 | 1037.8 | – | –
321.35 K, m1 = 0.2466 | 1024.5 | – | –
321.4 K, m1 = 2.29 | 1288.5 | – | –
321.65 K, m1 = 2.344 | 1294.6 | – | –
321.7 K, m1 = 1.906 | 1243.6 | – | –
321.75 K, m1 = 4.817 | 1535.8 | – | –
321.85 K, m1 = 6.89 | 1685.8 | – | –
322.05 K, m1 = 2.292 | 1288.5 | – | –
322.05 K, m1 = 2.91 | 1356.4 | – | –
322.4 K, m1 = 0.6111 | 1075.8 | – | –
322.5 K, m1 = 3.472 | 1413.3 | – | –
322.55 K, m1 = 7.764 | 1736.9 | – | –
322.6 K, m1 = 6.34 | 1649 | – | –
322.75 K, m1 = 1.551 | 1199.5 | – | –
322.95 K, m1 = 0.6405 | 1079.6 | – | –
323.15 K, m1 = 0.0875 | – | 1545.6 | –
323.15 K, m1 = 0.1329 | – | 1544.6 | 0.58
323.15 K, m1 = 0.2466 | – | 1547.7 | 0.601
323.15 K, m1 = 0.3388 | – | 1551.5 | 0.621
323.15 K, m1 = 0.6111 | – | 1560.9 | 0.679
323.15 K, m1 = 0.6405 | – | 1561 | 0.686
323.15 K, m1 = 1.113 | – | 1577.8 | 0.804
323.15 K, m1 = 1.258 | – | 1585.2 | 0.853
323.15 K, m1 = 1.551 | – | 1598.3 | 0.935
323.15 K, m1 = 1.906 | – | 1611 | 1.077
323.15 K, m1 = 2.145 | – | 1622.9 | 1.183
323.15 K, m1 = 2.29 | – | 1630 | 1.245
323.15 K, m1 = 2.292 | – | 1631.1 | –
323.15 K, m1 = 2.344 | – | 1628.1 | 1.254
323.15 K, m1 = 2.91 | – | 1651.1 | 1.537
323.15 K, m1 = 3.472 | – | 1675.6 | 1.908
323.15 K, m1 = 4.075 | – | 1690.4 | 2.349
323.15 K, m1 = 4.817 | – | 1707.1 | 3.051
323.15 K, m1 = 5.224 | – | 1716.7 | 3.464
323.15 K, m1 = 5.797 | – | 1723.6 | 4.283
323.15 K, m1 = 6.34 | – | 1724.9 | 5.066
323.15 K, m1 = 6.89 | – | 1729.5 | 6.121
323.15 K, m1 = 7.349 | – | 1729.7 | 7.071
324.25 K, m1 = 7.764 | 1734.9 | – | –
